According to ChEMBL document CHEMBL1157884, “Synthesis and SAR of heterocyclic carboxylic acid isosteres based on 2-biarylethylimidazole as bombesin receptor subtype-3 (BRS-3) agonists for the treatment of obesity” (Bioorg Med Chem Lett, 2010):

How the values were obtained:
[1] = molecular target: T1, Bombesin receptor subtype-3 (Homo sapiens) (UniProt P32247); test: Agonist activity at human BRS3 relative to [D-Tyr6,b-Ala11,Phe13,Nle14]-Bombesin; type: functional
T1 sequence (whole entry): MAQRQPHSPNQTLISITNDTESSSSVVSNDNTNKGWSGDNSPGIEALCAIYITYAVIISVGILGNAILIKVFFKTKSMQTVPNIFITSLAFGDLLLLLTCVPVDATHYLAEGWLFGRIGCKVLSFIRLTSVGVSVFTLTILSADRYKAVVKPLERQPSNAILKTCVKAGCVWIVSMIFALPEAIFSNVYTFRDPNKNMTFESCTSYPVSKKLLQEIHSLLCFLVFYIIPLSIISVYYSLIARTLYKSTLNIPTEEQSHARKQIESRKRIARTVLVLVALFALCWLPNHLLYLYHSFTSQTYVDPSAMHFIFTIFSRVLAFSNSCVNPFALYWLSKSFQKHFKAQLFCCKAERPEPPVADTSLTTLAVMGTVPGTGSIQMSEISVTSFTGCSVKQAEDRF

[2] = molecular target: T2, Bombesin receptor subtype-3 (Homo sapiens, UniProt P32247); test: Binding affinity to human BRS3
T2 sequence (P32247 whole entry): T1 sequence (whole entry)

[3] = molecular target: T2, Bombesin receptor subtype-3; test: Agonist activity at human BRS3; type: functional
[4] = molecular target: T3, Bombesin receptor subtype-3 (Mus musculus, UniProt O54798); test: Agonist activity at mouse BRS3; type: functional
T3 sequence (O54798 whole entry): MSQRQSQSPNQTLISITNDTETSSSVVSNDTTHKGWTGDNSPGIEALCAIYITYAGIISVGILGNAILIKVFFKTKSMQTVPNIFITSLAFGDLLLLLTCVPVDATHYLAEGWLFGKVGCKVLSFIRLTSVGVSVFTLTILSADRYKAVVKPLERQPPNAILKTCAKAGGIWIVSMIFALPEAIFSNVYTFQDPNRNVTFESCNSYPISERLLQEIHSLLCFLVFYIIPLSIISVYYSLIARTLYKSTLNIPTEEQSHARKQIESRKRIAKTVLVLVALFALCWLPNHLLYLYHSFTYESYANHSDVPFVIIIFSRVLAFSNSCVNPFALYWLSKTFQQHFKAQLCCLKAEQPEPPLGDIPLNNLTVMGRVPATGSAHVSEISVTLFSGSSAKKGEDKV

[5] = molecular target: T4, Bombesin receptor subtype-3 (Mus musculus) (UniProt O54798); test: Agonist activity at mouse BRS3 relative to [D-Tyr6,b-Ala11,Phe13,Nle14]-Bombesin; type: functional
T4 sequence (whole entry): T3 sequence (O54798 whole entry)

[6] = Total plasma concentration in rat at 1 mg/kg, iv after 1 hr; type: ADME, organism-based; parameters: dose 1 mg/kg, route intravenous
[7] = Drug level in rat brain at 1 mg/kg, iv after 1 hr; type: ADME, organism-based; parameters: dose 1 mg/kg, route intravenous; details: read-out: Drug uptake
[8] = Ratio of drug level in brain to plasma in rat at 1 mg/kg, iv after 1 hr; type: ADME, organism-based; parameters: dose 1 mg/kg, route intravenous
[9] = Oral bioavailability in rat; type: ADME, organism-based; details: in vivo
[10] = Total plasma concentration in rat at 2 mg/kg, iv after 1 hr; type: ADME, organism-based; parameters: dose 2 mg/kg, route intravenous
[11] = Drug level in rat brain at 2 mg/kg, iv after 1 hr; type: ADME, organism-based; parameters: dose 2 mg/kg, route intravenous; details: read-out: Drug uptake
[12] = Ratio of drug level in brain to plasma in rat at 2 mg/kg, iv after 1 hr; type: ADME, organism-based; parameters: dose 2 mg/kg, route intravenous

Activity [1] [%] | IC50 [2] [nM] | EC50 [3] [nM] | EC50 [4] [nM] | Activity [5] [%] | SMILES | further results
97 |  |  |  |  | CCC(C)(C)Cc1c[nH]c(CCc2ccc(-c3ccccc3OCc3cnn[nH]3)cc2)n1 | 
98 | 27 | 78 | 4.6 | 115 | CCC(C)(C)Cc1c[nH]c(CCc2ccc(-c3ccccc3OCc3nc(N)n[nH]3)cc2)n1 | concentration at 1 h [6]: 860 nM; concentration at 1 h [7]: 10 nM; Kp at 1 h [8]: 0.016
 | 22 | 172 |  |  | CCC(C)(C)Cc1c[nH]c(CCc2ccc(-c3ccccc3OCc3nnc[nH]3)cc2)n1 | 
111 |  | 30 | 2.9 | 109 | CCC(C)(C)Cc1c[nH]c(CCc2ccc(-c3ccccc3OCc3nnn[nH]3)cc2)n1 | concentration at 1 h [10]: 1250 nM; concentration at 1 h [11]: 10 nM; Kp at 1 h [12]: 0.01
107 |  |  |  |  | CCC(C)(C)Cc1c[nH]c(CCc2ccc(-c3ccccc3OCc3nc(=O)[nH][nH]3)cc2)n1 | 
89 | 127 | 129 | 12 | 122 | CCC(C)(C)Cc1c[nH]c(CCc2ccc(-c3ccccc3OCc3nc(C(F)(F)F)n[nH]3)cc2)n1 | 
113 |  |  |  |  | CCC(C)(C)Cc1c[nH]c(CCc2ccc(-c3ccccc3OCc3ncn[nH]3)cc2)n1 | 
114 | 6.1 | 41 | 5.8 | 120 | CCC(C)(C)Cc1c[nH]c(CCc2ccc(-c3ccccc3OCc3nc(=S)[nH][nH]3)cc2)n1 | concentration at 1 h [6]: 4960 nM; concentration at 1 h [7]: 30 nM; Kp at 1 h [8]: 0.006

The remaining lines, values behind:

SMILES | Activity [1] [%] | IC50 [2] [nM] | EC50 [3] [nM] | EC50 [4] [nM] | Activity [5] [%] | further results
CCC(C)(C)Cc1c[nH]c(CCc2ccc(-c3ccccc3O)cc2)n1 | 97 | 31 | 133 | 34 | 113 | 
CCC(C)(C)Cc1cnc(CCc2ccc(-c3ccccc3OCc3cnn[nH]3)cc2)[nH]1 |  | 83 | 399 |  |  | 
CCC(C)(C)Cc1cnc(CCc2ccc(N3CCCC[C@@H]3c3nnc[nH]3)cc2)[nH]1 |  | 26 | 42 | 13 |  | bioavailability [9]: 4.8%
CCC(C)(C)Cc1c[nH]c(CCc2ccc(-c3ccccc3OCC(=O)O)cc2)n1 | 97 |  |  |  |  | 
c1ccc(-c2nnn[nH]2)c(-c2ccc(CCc3ncc(CC4CCCC4)[nH]3)cc2)c1 |  | 15 | 56 | 16 |  | 
CCC(C)(C)Cc1cnc(CCc2ccc(-c3ccccc3OCc3n[nH]c(=O)[nH]3)cc2)[nH]1 |  | 31 | 336 |  |  | 
c1ccc(-c2nnn[nH]2)c(-c2ccc(CCc3nc(CC4CCCC4)c[nH]3)cc2)c1 | 112 |  |  |  | 85 | 
CCC(C)(C)Cc1c[nH]c(CCc2ccc(N3CCCC[C@@H]3c3nnn[nH]3)cc2)n1 | 100 | 6.2 | 15 | 16 | 119 | bioavailability [9]: 4.9%
CCC(C)(C)Cc1c[nH]c(CCc2ccc(N3CCCc4cn[nH]c43)cc2)n1 | 101 |  | 42 | 13 | 120 | bioavailability [9]: 29%
CCC(C)(C)Cc1c[nH]c(CCc2ccc3c(c2)CN(C)C(=O)c2ccccc2-3)n1 | 96 |  |  |  | 119 | 
CCC(C)(C)Cc1c[nH]c(CCc2ccc3c(c2)CNC(=O)c2ccccc2-3)n1 | 98 |  |  |  | 118 | 
O=C1NC(=O)C(c2ccccc2-c2ccc(CCC3N=CC(CC4CCCC4)=N3)cc2)S1 (stereo unspecified) | 94 | 287 | 1770 |  |  | 
CCC(C)(C)Cc1cnc(CCc2ccc3c(c2)CNC(=O)c2ccccc2-3)[nH]1 |  | 10 | 29 | 11 |  | concentration at 1 h [6]: 310 nM; concentration at 1 h [7]: 20 nM; Kp at 1 h [8]: 0.068
CCC(C)(C)Cc1cnc(CCc2ccc(-c3ccccc3OCC(=O)O)cc2)[nH]1 |  | 103 | 54 |  |  | 
CCC(C)(C)Cc1cnc(CCc2ccc3c(c2)CN(C)C(=O)c2ccccc2-3)[nH]1 |  | 20 | 56 | 27 |  | 
CCC(C)(C)Cc1c[nH]c(CCc2ccc(N3CCCC[C@@H]3c3ncn[nH]3)cc2)n1 | 96 |  |  |  | 117 | 
CCC(C)(C)Cc1c[nH]c(CCc2ccc(N3CCCC[C@@H]3C(=O)O)cc2)n1 | 100 | 5.3 | 24 | 12 | 111 | concentration at 1 h [6]: 210 nM; concentration at 1 h [7]: 10 nM; Kp at 1 h [8]: 0.04
